Laboratory results: the supplement of paper PMC10307832

Experiments:
Test in all cases: relative viability (nuclei count vs DMSO), 5 days (fraction); higher = more cells survive
LXF-289 = system: LXF-289
Procedure, shortened: (§1)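 Lung cancer cell lines were pin-tool dosed in 1536-well plates on the day after seeding, with either a lone drug or a fixed anchor-drug dose plus five library-drug doses (not always all listed) in √10 steps. Nuclei were counted on 4× images after 5 days. Relative viability is the ratio of treated-well to vehicle-well nuclei counts, with each value a median of duplicate plates.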

NCI-H2126 = system: NCI-H2126
Procedure, shortened: as §1

PC-3 [JPC-3] = system: PC-3 [JPC-3]
Procedure, shortened: as §1

HARA = system: HARA
Procedure, shortened: as §1

HOP-62 = system: HOP-62
Procedure, shortened: as §1

HCC-366 = system: HCC-366
Procedure, shortened: as §1

HCC-827 = system: HCC-827
Procedure, shortened: as §1

PC-14 = system: PC-14
Procedure, shortened: as §1

NCI-H2087 = system: NCI-H2087
Procedure, shortened: as §1

HCC-15 = system: HCC-15
Procedure, shortened: as §1

LU99A = system: LU99A
Procedure, shortened: as §1

HCC-44 = system: HCC-44
Procedure, shortened: as §1

CAL-12T = system: CAL-12T
Procedure, shortened: as §1

LC-2-ad = system: LC-2-ad
Procedure, shortened: as §1

NCI-H522 = system: NCI-H522
Procedure, shortened: as §1

NCI-H1993 = system: NCI-H1993
Procedure, shortened: as §1

NCI-H2170 = system: NCI-H2170
Procedure, shortened: as §1

LCLC-97TM1 = system: LCLC-97TM1
Procedure, shortened: as §1

COCC1(CO)C(=O)C2CCN1CC2 (configuration not stated) [PRIMA-1MET] + NC(=O)Nc1cc(-c2cccc(F)c2)sc1C(=O)N[C@H]1CCCNC1 [AZD7762] (partner 0.2 µM)
relative viability (LXF-289; first compound 0.2 µM): 1.15 | relative viability (LXF-289; first compound 0.6325 µM): 1.07 | relative viability (LXF-289; first compound 2 µM): 1.13 | relative viability (LXF-289; first compound 6.325 µM): 1.12 | relative viability (LXF-289; first compound 20 µM): 1.01 | relative viability (NCI-H2126; first compound 0.2 µM): 1.05 | relative viability (NCI-H2126; first compound 0.6325 µM): 1.02 | relative viability (NCI-H2126; first compound 2 µM): 0.975 | relative viability (NCI-H2126; first compound 6.325 µM): 1.02 | relative viability (NCI-H2126; first compound 20 µM): 0.978 | relative viability (PC-3 [JPC-3]; first compound 0.2 µM): 1 | relative viability (PC-3 [JPC-3]; first compound 0.6325 µM): 0.797 | relative viability (PC-3 [JPC-3]; first compound 2 µM): 0.811 | relative viability (PC-3 [JPC-3]; first compound 6.325 µM): 0.904 | relative viability (PC-3 [JPC-3]; first compound 20 µM): 0.672 | relative viability (HARA; first compound 0.2 µM): 0.308 | relative viability (HARA; first compound 0.6325 µM): 0.265 | relative viability (HARA; first compound 2 µM): 0.493 | relative viability (HARA; first compound 6.325 µM): 0.333 | relative viability (HARA; first compound 20 µM): 0.254 | relative viability (HOP-62; first compound 0.2 µM): 0.653 | relative viability (HOP-62; first compound 0.6325 µM): 0.387 | relative viability (HOP-62; first compound 2 µM): 0.482 | relative viability (HOP-62; first compound 6.325 µM): 0.655 | relative viability (HOP-62; first compound 20 µM): 0.273 | relative viability (HCC-366; first compound 0.2 µM): 0.3 | relative viability (HCC-366; first compound 0.6325 µM): 0.186 | relative viability (HCC-366; first compound 2 µM): 0.223 | relative viability (HCC-366; first compound 6.325 µM): 0.281 | relative viability (HCC-366; first compound 20 µM): 0.168 | relative viability (HCC-827; first compound 0.2 µM): 0.206 | relative viability (HCC-827; first compound 0.6325 µM): 0.224 | relative viability (HCC-827; first compound 2 µM): 0.181 | relative viability (HCC-827; first compound 6.325 µM): 0.211 | relative viability (HCC-827; first compound 20 µM): 0.239 | relative viability (PC-14; first compound 0.2 µM): 0.407 | relative viability (PC-14; first compound 0.6325 µM): 0.386 | relative viability (PC-14; first compound 2 µM): 0.319 | relative viability (PC-14; first compound 6.325 µM): 0.387 | relative viability (PC-14; first compound 20 µM): 0.178 | relative viability (NCI-H2087; first compound 0.6325 µM): 1.35 | relative viability (NCI-H2087; first compound 2 µM): 1.29 | relative viability (NCI-H2087; first compound 6.325 µM): 1.25 | relative viability (NCI-H2087; first compound 20 µM): 0.938 | relative viability (HCC-15; first compound 0.2 µM): 1.17 | relative viability (HCC-15; first compound 0.6325 µM): 1.22 | relative viability (HCC-15; first compound 2 µM): 1.4 | relative viability (HCC-15; first compound 6.325 µM): 1.26 | relative viability (HCC-15; first compound 20 µM): 1.16 | relative viability (LU99A; first compound 0.2 µM): 0.548 | relative viability (LU99A; first compound 0.6325 µM): 0.167 | relative viability (LU99A; first compound 2 µM): 0.443 | relative viability (LU99A; first compound 6.325 µM): 0.361 | relative viability (LU99A; first compound 20 µM): 0.0555 | relative viability (HCC-44; first compound 0.2 µM): 1.02 | relative viability (HCC-44; first compound 0.6325 µM): 1.01 | relative viability (HCC-44; first compound 2 µM): 1.18 | relative viability (HCC-44; first compound 6.325 µM): 1.03 | relative viability (HCC-44; first compound 20 µM): 1.01 | relative viability (CAL-12T; first compound 0.2 µM): 0.603 | relative viability (CAL-12T; first compound 2 µM): 0.6 | relative viability (CAL-12T; first compound 6.325 µM): 0.777 | relative viability (CAL-12T; first compound 20 µM): 0.601 | relative viability (LC-2-ad; first compound 0.2 µM): 0.968 | relative viability (LC-2-ad; first compound 0.6325 µM): 0.806 | relative viability (LC-2-ad; first compound 2 µM): 0.669 | relative viability (LC-2-ad; first compound 6.325 µM): 0.932 | relative viability (LC-2-ad; first compound 20 µM): 0.791 | relative viability (NCI-H522; first compound 0.2 µM): 0.788 | relative viability (NCI-H522; first compound 0.6325 µM): 0.823 | relative viability (NCI-H522; first compound 2 µM): 0.838 | relative viability (NCI-H522; first compound 6.325 µM): 0.598 | relative viability (NCI-H522; first compound 20 µM): 0.283 | relative viability (NCI-H1993; first compound 0.2 µM): 0.476 | relative viability (NCI-H1993; first compound 2 µM): 0.726 | relative viability (NCI-H1993; first compound 6.325 µM): 0.783 | relative viability (NCI-H1993; first compound 20 µM): 0.716 | relative viability (NCI-H2170; first compound 0.2 µM): 1.06 | relative viability (NCI-H2170; first compound 0.6325 µM): 0.604 | relative viability (NCI-H2170; first compound 2 µM): 0.644 | relative viability (NCI-H2170; first compound 6.325 µM): 1 | relative viability (NCI-H2170; first compound 20 µM): 0.836 | relative viability (LCLC-97TM1; first compound 0.2 µM): 0.268 | relative viability (LCLC-97TM1; first compound 0.6325 µM): 0.226 | relative viability (LCLC-97TM1; first compound 2 µM): 0.212 | relative viability (LCLC-97TM1; first compound 6.325 µM): 0.336 | relative viability (LCLC-97TM1; first compound 20 µM): 0.166
